The results in this text go back to ChEMBL document CHEMBL1201862, “PubChem BioAssay data set” (2004).

Data set [1] addresses Tumor necrosis factor (Homo sapiens, UniProt P01375). Briefly: TNFa-triggered NF-kB activation inhibitors, SAR follow-up, cell-based, revised (AID 2337). The class given is functional.
A short description of data set [2]: Shn3 3'UTR reporter inhibitors, dose response, cell-based, Clone20 osteoblasts, firefly luciferase, cherry-picked (AID 624132).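 Note: firefly luciferase luminescence from reporter carrying the Shn3 3'UTR in osteoblasts.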 Format: functional.
The target of data set [3] is T1, COUP transcription factor 2 (Homo sapiens, UniProt P24468).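 Note: HEK293 cells transiently cotransfected with COUP-TFII expression vector and reporter; luciferase reporter luminescence driven by COUP-TFII from the pX2-168 reporter plasmid.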
T1 sequence (P24468 whole entry): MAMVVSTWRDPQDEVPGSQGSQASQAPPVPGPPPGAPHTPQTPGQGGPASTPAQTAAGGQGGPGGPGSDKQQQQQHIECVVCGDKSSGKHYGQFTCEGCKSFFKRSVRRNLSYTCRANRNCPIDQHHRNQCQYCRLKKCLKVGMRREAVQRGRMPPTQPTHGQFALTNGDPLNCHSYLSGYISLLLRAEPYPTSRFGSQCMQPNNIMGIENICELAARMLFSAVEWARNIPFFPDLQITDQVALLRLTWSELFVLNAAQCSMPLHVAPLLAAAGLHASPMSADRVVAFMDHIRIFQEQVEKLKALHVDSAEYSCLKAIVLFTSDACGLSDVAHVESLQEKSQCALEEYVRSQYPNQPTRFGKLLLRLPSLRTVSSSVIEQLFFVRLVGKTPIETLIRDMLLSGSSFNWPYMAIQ
The data set can be described thus: Luminescence-based cell-based high throughput dose response assay to identify inhibitors of COUP-TFII (NR2F2). Format: functional.

Data set [4] deals with T2, Nucleotide-binding oligomerization domain-containing protein 1 (Homo sapiens, UniProt Q9Y239).
T2 sequence (Q9Y239 whole entry): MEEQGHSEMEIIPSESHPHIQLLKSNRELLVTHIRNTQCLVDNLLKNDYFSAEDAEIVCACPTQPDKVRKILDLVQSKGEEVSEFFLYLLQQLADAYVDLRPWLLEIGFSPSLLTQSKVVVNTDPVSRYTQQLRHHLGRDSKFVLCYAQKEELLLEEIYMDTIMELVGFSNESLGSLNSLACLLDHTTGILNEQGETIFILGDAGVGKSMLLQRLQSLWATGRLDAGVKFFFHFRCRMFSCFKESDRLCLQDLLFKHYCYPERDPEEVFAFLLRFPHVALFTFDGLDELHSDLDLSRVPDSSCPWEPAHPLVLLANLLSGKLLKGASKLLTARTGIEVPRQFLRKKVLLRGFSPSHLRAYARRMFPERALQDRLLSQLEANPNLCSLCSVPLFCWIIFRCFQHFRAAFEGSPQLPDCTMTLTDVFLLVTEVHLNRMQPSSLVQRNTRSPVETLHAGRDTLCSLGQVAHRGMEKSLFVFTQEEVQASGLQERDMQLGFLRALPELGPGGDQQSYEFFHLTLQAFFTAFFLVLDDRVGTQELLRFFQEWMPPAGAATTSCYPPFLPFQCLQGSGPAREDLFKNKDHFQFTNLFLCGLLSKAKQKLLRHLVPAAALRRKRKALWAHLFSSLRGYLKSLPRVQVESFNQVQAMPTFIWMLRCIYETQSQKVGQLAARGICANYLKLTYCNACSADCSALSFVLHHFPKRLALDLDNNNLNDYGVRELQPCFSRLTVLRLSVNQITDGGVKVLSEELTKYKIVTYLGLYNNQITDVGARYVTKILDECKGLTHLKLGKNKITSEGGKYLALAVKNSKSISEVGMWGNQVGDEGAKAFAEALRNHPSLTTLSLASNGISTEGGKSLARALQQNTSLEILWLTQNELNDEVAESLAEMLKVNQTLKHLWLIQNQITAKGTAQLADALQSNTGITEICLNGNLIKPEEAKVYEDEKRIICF
The data set can be described thus: NOD1 signaling inhibitors, SAR follow-up, revised (AID 2333). The class given is functional.

Data set [5] has as its system HEK293. Briefly: cells. The note with it: Homo sapiens.
Data set [6] is described as follows: control 3'UTR Renilla luciferase suppression, dose response, counter-screen for Shn3 inhibitor project, cell-based, Clone20-Shn3RL, cherry-picked (AID 624133). Format: functional.
Data set [7] concerns INS1. Briefly: beta cell apoptosis inhibitors, cytokine rescue, dose response, luminescence, retest (AID 449756).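 Note: cell death triggered by IL-1 beta plus TNF-alpha plus IFN-gamma mixture; protective hits raise ATP signal compared with cytokine alone wells.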 The conditions noted are these: Rattus norvegicus. The class given is functional, cell-based.
Data set [8] has as its system HEK293. The data set can be described thus: cells. The class given is functional, cell-based. The conditions noted are these: Homo sapiens.
The test system of data set [9] is HEK293. The data set can be described thus: NOD2 signaling inhibitors in MDP-stimulated cells, cell-based, uHTS, luminescence (AID 2001). Format: functional. The conditions noted are these: Homo sapiens.
The subject of data set [10] is HEK293. Briefly: cells. The class given is functional, cell-based. The conditions noted are these: Homo sapiens. The source holds these as a separate data set.
Data set [11] has as its system HEK293. The data set can be described thus: NOD1 signaling inhibitors, primary screen, cell-based, luminescence, uHTS (AID 1578). Format: functional. The conditions noted are these: Homo sapiens.
Data set [12] concerns HEK293. Briefly: cells. Format: functional, cell-based. The note with it: Homo sapiens. This is another data set of the same source.
Data set [13] in a line: cytotoxicity toward NIH3T3 fibroblasts, dose response, counter-screen, cell-based, ATP luminescence, mouse fibroblasts (AID 2010).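 Note: cells exposed to compound for about 90 hours before reading.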 Format: functional.
Data set [14] can be described thus: inhibitors of intracellular T. cruzi replication, confirmation, NIH3T3 host cells, beta-gal luminescence (AID 2044).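 Note: intracellular parasites grown in NIH/3T3 mouse fibroblasts as host cells; luminescent beta-galactosidase reporter signal from transgenic T. cruzi replicating inside host cells; inhibitors lower the luminescence signal.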 The class given is functional, cell-based.
Data set [15] concerns the target T3, Ubiquitin-conjugating enzyme E2 N (Homo sapiens, UniProt P61088).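 Note: Dose-response confirmation in a TR-FRET assay detecting UBC13-driven polyubiquitin chain formation, inhibition measured.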
T3 sequence (P61088 whole entry): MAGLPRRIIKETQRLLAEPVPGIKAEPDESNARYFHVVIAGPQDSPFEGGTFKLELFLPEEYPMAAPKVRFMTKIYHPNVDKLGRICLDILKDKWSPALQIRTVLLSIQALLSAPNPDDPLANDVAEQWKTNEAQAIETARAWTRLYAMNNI
Format: functional.

Data set [16] in a line: Luminescence Cell-Based Dose Retest to Confirm Inhibitors of Cancer Stem Cells. [Related pubchem assays (depositor defined):AID2717, AID2721]. The note with it: Homo sapiens. The class given is functional.
Data set [17] deals with T4, DNA repair protein RAD52 homolog (Homo sapiens, UniProt P43351).
T4 sequence (P43351 whole entry): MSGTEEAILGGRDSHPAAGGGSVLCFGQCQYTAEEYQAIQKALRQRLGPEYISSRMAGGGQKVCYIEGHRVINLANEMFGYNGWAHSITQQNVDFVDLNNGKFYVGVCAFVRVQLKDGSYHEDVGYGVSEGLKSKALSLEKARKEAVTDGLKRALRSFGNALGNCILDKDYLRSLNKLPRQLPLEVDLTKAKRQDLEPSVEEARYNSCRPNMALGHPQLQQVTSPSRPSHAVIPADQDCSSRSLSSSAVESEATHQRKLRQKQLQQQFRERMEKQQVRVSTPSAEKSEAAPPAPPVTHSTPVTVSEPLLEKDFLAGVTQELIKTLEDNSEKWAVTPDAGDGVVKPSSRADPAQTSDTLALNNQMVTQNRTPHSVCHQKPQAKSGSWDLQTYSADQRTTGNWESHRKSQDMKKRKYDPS
The class given is functional, biochemical.

Data set [18] concerns the target Cytochrome P450 2D6 (Homo sapiens, UniProt P10635).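 Note: CYP2D6 member of a cytochrome P450 panel assay.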
For data set [19], the target named is Cytochrome P450 2C9 (Homo sapiens, UniProt P11712).
The target of data set [20] is SUMO-activating enzyme (Homo sapiens, UniProt Q9UBT2). Briefly: SUMOylation inhibitor hit validation, confirmation, SUMOylation inhibitor project, biochemical, AlphaScreen (AID 2018). Format: functional.
A short description of data set [21]: ZM109 Env clade C HIV-1 fusion inhibitors, dose response, HeLa effector, CEM target cells, luciferase, cherry-pick (AID 652058). The class given is functional, cell-based.
A short description of data set [22]: inhibitors of clade B AD8 Env fusion, dose response, cell-based, cherry-pick (AID 652062).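 Note: luciferase signal from cell-cell fusion driven by HIV-1 clade B AD8 Env; potency is for inhibitors of fusion seen as a drop in luminescence.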 The class given is functional.
Data set [23] in a line: inhibitors of HIV Env-driven cell fusion, dose response, cherry-pick (AID 652057). The class given is functional, cell-based.
Data set [24] is described as follows: MC4R antagonists, dose response, counter-screen for LGR2 antagonist project, cell-based, plate reader, cherry pick (AID 743444).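 Note: transfected HEK 293 cells stimulated with alpha-MSH peptide; potency of inhibitors of the alpha-MSH evoked signal.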 The class given is functional.
The nature of data set [25]: LGR2 antagonists, dose response, cell-based, HEK293, CRE-luciferase reporter, cherry pick, set 2 (AID 743343).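 Note: transfected cells were stimulated with diluted bursicon conditioned medium after compound addition.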 Format: functional.
For data set [26], the target named is Cytochrome P450 2C19 (Homo sapiens, UniProt P33261). The data set can be described thus: Cytochrome panel assay with activity outcomes. Panel member name: p450-cyp2c19 Compounds with AC50 equal or less than 10 uM are considered active. The class given is functional. The conditions noted are these: read-out: AC50.
For data set [27], the target named is Nucleotide-binding oligomerization domain-containing protein 2 (Homo sapiens, UniProt Q9HC29). The data set can be described thus: NOD2 signaling inhibitors, cell-based, luminescence, uHTS, HEK293 (AID 1566). The class given is functional.

The source made the active and inactive calls.

Sequence of Cytochrome P450 2D6 (P10635 whole entry): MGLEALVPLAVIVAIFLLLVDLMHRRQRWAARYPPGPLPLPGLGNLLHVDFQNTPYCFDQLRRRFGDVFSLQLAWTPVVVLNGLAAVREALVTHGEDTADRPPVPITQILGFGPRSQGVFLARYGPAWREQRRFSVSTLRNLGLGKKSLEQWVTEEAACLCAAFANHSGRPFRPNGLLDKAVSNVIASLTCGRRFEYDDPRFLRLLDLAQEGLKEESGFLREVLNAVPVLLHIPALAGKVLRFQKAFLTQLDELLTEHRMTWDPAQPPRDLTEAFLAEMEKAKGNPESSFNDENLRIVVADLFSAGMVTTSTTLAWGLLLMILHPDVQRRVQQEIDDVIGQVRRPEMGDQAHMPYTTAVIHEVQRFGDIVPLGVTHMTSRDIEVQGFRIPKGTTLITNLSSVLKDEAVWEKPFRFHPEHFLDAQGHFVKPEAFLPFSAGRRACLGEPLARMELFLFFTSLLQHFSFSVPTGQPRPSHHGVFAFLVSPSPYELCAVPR
Sequence of Tumor necrosis factor (P01375 whole entry): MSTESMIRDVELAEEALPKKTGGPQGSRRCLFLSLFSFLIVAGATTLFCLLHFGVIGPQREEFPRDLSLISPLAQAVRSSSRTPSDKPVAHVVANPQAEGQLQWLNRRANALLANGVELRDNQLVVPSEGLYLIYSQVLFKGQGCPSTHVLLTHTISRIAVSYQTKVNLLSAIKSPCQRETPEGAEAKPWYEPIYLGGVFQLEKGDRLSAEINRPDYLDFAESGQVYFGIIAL
Sequence of Cytochrome P450 2C9 (P11712 whole entry): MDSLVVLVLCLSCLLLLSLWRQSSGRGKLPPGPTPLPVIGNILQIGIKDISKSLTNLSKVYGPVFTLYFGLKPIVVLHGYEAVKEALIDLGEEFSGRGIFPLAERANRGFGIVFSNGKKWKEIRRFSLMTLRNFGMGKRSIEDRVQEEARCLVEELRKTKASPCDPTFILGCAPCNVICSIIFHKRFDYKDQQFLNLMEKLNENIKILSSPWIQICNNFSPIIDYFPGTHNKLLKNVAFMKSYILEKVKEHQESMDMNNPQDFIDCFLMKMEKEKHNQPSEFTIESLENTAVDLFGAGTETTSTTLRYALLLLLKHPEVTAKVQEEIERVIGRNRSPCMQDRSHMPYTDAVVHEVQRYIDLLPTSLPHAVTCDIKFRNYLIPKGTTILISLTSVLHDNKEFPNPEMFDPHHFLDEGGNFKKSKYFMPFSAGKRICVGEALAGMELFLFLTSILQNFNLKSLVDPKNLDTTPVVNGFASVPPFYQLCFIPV
Sequence of Nucleotide-binding oligomerization domain-containing protein 2 (Q9HC29 whole entry, the tested form may be a part): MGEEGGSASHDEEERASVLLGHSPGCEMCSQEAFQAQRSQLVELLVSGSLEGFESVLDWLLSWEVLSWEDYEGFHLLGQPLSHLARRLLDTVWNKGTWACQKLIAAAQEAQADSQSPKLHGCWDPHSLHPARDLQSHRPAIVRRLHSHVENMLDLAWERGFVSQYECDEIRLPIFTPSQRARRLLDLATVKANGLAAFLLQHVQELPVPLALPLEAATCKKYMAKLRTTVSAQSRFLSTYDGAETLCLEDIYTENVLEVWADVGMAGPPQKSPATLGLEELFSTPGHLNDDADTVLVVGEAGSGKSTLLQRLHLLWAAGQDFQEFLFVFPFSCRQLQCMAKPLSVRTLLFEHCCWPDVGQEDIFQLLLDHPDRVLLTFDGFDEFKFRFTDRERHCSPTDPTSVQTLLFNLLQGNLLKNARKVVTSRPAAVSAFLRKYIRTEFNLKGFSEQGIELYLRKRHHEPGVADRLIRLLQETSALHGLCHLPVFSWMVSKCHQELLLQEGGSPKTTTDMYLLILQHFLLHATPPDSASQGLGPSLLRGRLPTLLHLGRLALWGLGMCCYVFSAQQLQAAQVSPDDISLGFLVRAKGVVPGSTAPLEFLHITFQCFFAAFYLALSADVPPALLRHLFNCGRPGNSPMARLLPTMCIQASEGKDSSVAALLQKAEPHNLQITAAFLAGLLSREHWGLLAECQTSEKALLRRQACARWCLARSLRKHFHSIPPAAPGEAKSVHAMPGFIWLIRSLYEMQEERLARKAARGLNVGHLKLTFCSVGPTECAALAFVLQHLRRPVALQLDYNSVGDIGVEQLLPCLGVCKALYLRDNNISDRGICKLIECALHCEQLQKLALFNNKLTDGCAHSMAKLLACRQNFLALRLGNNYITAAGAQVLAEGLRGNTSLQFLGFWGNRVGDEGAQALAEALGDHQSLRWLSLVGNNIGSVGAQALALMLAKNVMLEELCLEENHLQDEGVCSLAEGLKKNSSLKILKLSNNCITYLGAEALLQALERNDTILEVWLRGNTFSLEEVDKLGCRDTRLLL
Sequence of SUMO-activating enzyme (Q9UBE0 whole entry, the tested form may be a part): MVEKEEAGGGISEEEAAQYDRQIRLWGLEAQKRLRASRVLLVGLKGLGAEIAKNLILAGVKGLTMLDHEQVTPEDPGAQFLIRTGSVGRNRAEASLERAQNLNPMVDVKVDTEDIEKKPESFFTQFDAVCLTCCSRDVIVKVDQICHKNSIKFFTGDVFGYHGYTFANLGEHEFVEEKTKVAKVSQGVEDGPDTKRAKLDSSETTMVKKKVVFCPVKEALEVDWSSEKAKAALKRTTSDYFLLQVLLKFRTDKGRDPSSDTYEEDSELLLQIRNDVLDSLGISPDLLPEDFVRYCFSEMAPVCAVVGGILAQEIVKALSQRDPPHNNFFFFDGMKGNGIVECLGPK
Sequence of SUMO-activating enzyme (Q9UBT2 whole entry, the tested form may be a part): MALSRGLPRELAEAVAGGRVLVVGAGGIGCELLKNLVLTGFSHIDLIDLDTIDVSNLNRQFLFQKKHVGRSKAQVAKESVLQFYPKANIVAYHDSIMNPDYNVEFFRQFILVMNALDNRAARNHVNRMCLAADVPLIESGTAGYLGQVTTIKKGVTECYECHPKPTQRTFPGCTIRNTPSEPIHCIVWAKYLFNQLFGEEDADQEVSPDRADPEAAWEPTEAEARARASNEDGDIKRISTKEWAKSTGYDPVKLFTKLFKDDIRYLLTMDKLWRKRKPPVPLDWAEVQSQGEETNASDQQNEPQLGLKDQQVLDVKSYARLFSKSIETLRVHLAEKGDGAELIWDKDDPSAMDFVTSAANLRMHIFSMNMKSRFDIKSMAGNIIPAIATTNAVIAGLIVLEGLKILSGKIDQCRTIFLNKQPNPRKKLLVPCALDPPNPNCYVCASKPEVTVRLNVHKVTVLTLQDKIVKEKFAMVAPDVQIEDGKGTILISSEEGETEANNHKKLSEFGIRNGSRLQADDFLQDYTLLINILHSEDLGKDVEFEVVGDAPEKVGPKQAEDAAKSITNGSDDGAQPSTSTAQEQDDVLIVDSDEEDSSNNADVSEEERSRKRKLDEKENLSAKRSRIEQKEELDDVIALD
Sequence of Cytochrome P450 2C19 (P33261 whole entry, the tested form may be a part): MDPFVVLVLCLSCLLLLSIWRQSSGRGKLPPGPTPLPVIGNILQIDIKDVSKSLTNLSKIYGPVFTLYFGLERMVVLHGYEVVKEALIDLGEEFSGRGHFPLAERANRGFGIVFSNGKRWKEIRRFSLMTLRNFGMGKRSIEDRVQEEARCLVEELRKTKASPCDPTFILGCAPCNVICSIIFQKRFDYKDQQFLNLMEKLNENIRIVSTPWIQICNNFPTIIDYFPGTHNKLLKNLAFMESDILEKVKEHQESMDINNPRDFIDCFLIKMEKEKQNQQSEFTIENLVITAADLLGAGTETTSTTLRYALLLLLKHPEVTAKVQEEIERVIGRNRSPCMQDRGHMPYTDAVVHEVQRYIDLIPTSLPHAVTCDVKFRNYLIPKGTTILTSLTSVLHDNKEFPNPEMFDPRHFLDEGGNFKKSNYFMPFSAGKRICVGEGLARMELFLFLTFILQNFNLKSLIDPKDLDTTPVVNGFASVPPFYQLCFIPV

Regarding `Cc1cc(C(=O)NC2CCCc3c2cnn3-c2ccc(C)c(C)c2)n(C)n1` (stereo not drawn), the half-maximal inhibitory concentration (IC50) in [1] was 0.0793 µM (active); in data set [3], > 0.117 µM (active); in data set [4] it was 0.0431 µM (active); in data set [5], > 20 µM (inactive). In addition, the AC50 in data set [2] was < 0.26 µM (active); in data set [6], < 0.26 µM (active); in data set [7], 0.24 µM (active).
Regarding `NC(=O)c1ccsc1NC(=O)COC(=O)Cc1cccc2ccccc12`, the IC50 in data set [3] was 13.8 µM (inactive).
As to `Cc1nn(-c2ccccc2)c2nc(C(Cl)(Cl)Cl)nc(O)c12`, the IC50 in [8] is > 20 µM (inactive); in [9], 17.9 µM (inactive); in data set [10], > 20 µM (inactive); in data set [5], > 20 µM (inactive); in data set [12], > 20 µM (inactive). In addition, in data set [11], the EC50 was 12.4 µM (active).
In the case of `CCN1CCN(CCCNC(=O)c2ccc(/C=C3/Sc4ccccc4N(Cc4ccccc4F)C3=O)cc2)CC1`, the EC50 in [13] was 22.8 µM (active); in data set [14] it was 1.07 µM (active). Also, the IC50 in data set [15] is > 20 µM (inactive). The AC50 in [16] is 2.41 µM (active); in [17] it was 8.67 µM (active).
With `COc1ccc(-c2cc(NC=O)c3ncc(-c4cccc(C(=O)NCCN(C)C)c4)n3c2)c(OC)c1`, the concentration at half-maximal activity (AC50) in [17] is 2.55 µM (active).
For the compound `C/C(=N/NC(=O)c1ccc(NC(=O)c2ccc(F)cc2)cc1)c1ccccc1`, the AC50 entry in [18] was “inconclusive”; in data set [19], 5.01 µM (inconclusive).
Turning to `Cc1cc(OC(C(=O)O)c2ccccc2)c2c(C)c(Cc3ccccc3)c(=O)oc2c1` (stereo not drawn), the IC50 in [20] is 41.3 µM (active).
With `CCN(CC)S(=O)(=O)c1cccc(NC(=O)COC(=O)c2[nH]c(C)c(C(C)=O)c2C)c1`, the half-maximal inhibitory concentration (IC50) in data set [3] was 5.62 µM (active).
In the case of `CO/N=C(/C)CCC(=O)OC[C@@H]1O[C@H](C#Cc2ccccc2)C=C[C@@H]1Oc1ccc(C)cc1`, the half-maximal activity concentration (AC50) entry in data set [18] is “inconclusive”.
As to `C[C@H]1CN([C@@H](C)CO)C(=O)Cc2cc(NC(=O)Cc3ccccc3)ccc2O[C@H]1CN(C)S(=O)(=O)c1ccccc1`, the AC50 was 1.6 µM (active) in data set [21], 7.88 µM (active) in [22] and 1.62 µM (active) in [23].
As to `C=CCNc1nc(-c2cc3ccccc3o2)cs1`, the figures for the half-maximal activity concentration (AC50) in data set [24] and in data set [25] were 15.2 µM (active) and 13.9 µM (active), respectively.
Regarding `O=C(CCN1C(=O)C2C3C=CC(C3)C2C1=O)Nc1ccc2ncccc2c1` (stereo not drawn), the concentration at half-maximal activity (AC50) entry in data set [18] was “inconclusive”; in data set [26], 20 µM (inconclusive).
With `CO[C@H]1COC(=O)[C@@H](Cc2ccccc2)NC(=O)[C@@H](C)COC(=O)CCC[C@@H]1C`, the AC50 result in [18] was “inconclusive”.
For `CC(C)[C@](N)(C(=O)O)c1ccccc1`, the AC50 result in data set [18] is “inconclusive”.
`O=C(c1ccc(S(=O)(=O)c2cccc(Cl)c2)c([N+](=O)[O-])c1)N1CCN(c2ccccn2)CC1`: the concentration for half-maximal inhibition (IC50) in data set [1] is 4.43 µM (active); in data set [8] it was 1.72 µM (active); in [9], 1.95 µM (active); in data set [4] it was 1.4 µM (active); in [10], 10.4 µM (active); in [5] it was 8.21 µM (active). Moreover, in data set [12], the IC50 was > 20 µM (inactive). The concentration giving a half-maximal response (EC50) in data set [27] is 12.3 µM (active); in [11], 10.1 µM (active).
